Counter-ions that a name gives are not always drawn.
Key:
[1] = system: Interleukin-2 (IL-2) production on spleen cells in the MLR; assay: Measurement of interleukin-2 production in MLR (mixed lymphocyte reaction); format: cell-based, mice; conditions: 48 h culture, ELISA
Procedure: Measurement of Interleukin-2 Production in MLR (Mixed Lymphocyte Reaction)
Measurement of interleukin-2 production in MLR was performed according to the described procedure (Gaveriaux-Ruff et al., J. Pharmacol. Exper. Ther. 298, 1193, 2001).
Splenocytes from mice were cultured with allogeneic stimulators (mitomycin treated BALB/c spleen cells).

calcineurin = calcineurin (Homo sapiens, UniProt Q08209); assay: Calcineurin inhibition assay; format: biochemical; conditions: compound at a concentration of 20 μM
Procedure: Calcineurin Inhibition Assays
Calcineurin inhibition assay was performed according to a described procedure (R. Baumgrass et al., J. Biol. Chem. 276, 47914, 2001).
Calcineurin inhibition was measured in a concentration range of 1-50 μM of the test compound at optimal Ca^2+ and calmoduline concentrations. The calcineurin/compound mixtures were equilibrated in the assay buffer (40 mM Tris-HCl, pH 7.5, 100 mM NaCl, 6 mM MgCl2, 0.5 mM ditiothreitol, 1 mM CaCl2, 0.1 mg/ml bovine serum albumin) at 22° C. for 30 min. Calcineurin activity was referenced to the assay lacking the test compounds. The data were computed with the SigmaPlot program.

calcineurin, sequence (P63098 2-170, other chains not shown): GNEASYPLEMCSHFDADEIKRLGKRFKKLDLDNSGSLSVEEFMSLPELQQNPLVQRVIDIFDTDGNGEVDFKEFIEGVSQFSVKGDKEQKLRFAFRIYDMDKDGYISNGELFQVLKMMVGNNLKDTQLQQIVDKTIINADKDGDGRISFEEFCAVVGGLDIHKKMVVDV

CCOC12Cc3c([nH]c4ccccc34)C3(C)Oc4c(O)ccc5c4C31CCN(CC1CC1)C2C5 (stereo not drawn) [HS 378, 17-(Cyclopropylmethyl)-6,7-dehydro-4,5α-epoxy-14ethoxy-3-hydroxy-5-methyl-6,7-2′,3′-indolomorphinan Hydrochloride]
IL-2 ([1]; 2 μM compound): 49 ± 7 pg/mL | IL-2 ([1]; 10 μM compound): 31 ± 3 pg/mL | IL-2 ([1]; 20 μM compound): 22 ± 2 pg/mL

Cl.Oc1ccc2c3c1OC1c4[nH]c5ccccc5c4CC4(OCc5ccccc5-c5ccccc5)C(C2)N(CC2CC2)CCC314 (stereo not drawn) [HS 882, 17-(Cyclopropylmethyl)-6,7-didehydro-4,5α-epoxy-14β-[(2-phenylbenzyl)oxy]indolo[2′,3′:6,7]morphinan-3-ol Hydrochloride]
Calcineurin activity (% of control) (calcineurin): 49 % of control

CC(C)(C)c1ccc(COC23Cc4c([nH]c5ccccc45)C4Oc5c(O)ccc6c5C42CCN(CC2CC2)C3C6)cc1.Cl (stereo not drawn) [HS 884, 14β-[(4-tert.-Butylbenzyl)oxy]-17-(cyclopropylmethyl)-6,7-didehydro-4,5α-epoxyindolo[2′,3′:6,7]morphinan-3-ol Hydrochloride]
Calcineurin activity (% of control) (calcineurin): 65 % of control

Oc1ccc2c3c1OC1c4[nH]c5ccccc5c4CC4(OCCCc5ccccc5)C(C2)N(CC2CC2)CCC314 (stereo not drawn) [HS 894, 17-(Cyclopropylmethyl)-6,7-didehydro-4,5α-epoxy-14β-[(3-phenylpropyl)oxy]indolo[2′,3′:6,7]morphinan-3-ol]
Calcineurin activity (% of control) (calcineurin): 30 % of control

Oc1ccc2c3c1O[C@H]1c4[nH]c5ccccc5c4C[C@@]4(O)[C@@H](C2)N(CC2CC2)CC[C@]314 [Naltrindole, reference compound]
IL-2 ([1]; 3 μM compound): 66 ± 18 pg/mL | IL-2 ([1]; 10 μM compound): 29 ± 6 pg/mL | IL-2 ([1]; 30 μM compound): 19 ± 5 pg/mL

From patent publication US20070167474A1, “Use of opioid receptor antagonist compounds for the prevention and/or treatment of diseases associated with the target calcineurin” (priority 2004, published 2007)
